Experimental data taken from patent US8003783B2, “17B-hydroxysteroid dehydrogenase inhibitors” (Sterix Limited, priority 2004, dated 2011).
Read-outs that look alike come from different tables or passages of the source.

Assays:
17β-HSD2 = biological target: T1, 17β-HSD2 (Homo sapiens, UniProt P37059); assay: 17β-HSD Type II activity in MDA-MB-231 cells (E2→E1); assay type: cell-based
T1 construct: was measured in intact cell monolayers of T47D and MDA-MB-231 breast cancer cells respectively; endogenous in cells; host or cells: MDA-MB-231 human breast cancer cells
T1 sequence (P37059 1-387): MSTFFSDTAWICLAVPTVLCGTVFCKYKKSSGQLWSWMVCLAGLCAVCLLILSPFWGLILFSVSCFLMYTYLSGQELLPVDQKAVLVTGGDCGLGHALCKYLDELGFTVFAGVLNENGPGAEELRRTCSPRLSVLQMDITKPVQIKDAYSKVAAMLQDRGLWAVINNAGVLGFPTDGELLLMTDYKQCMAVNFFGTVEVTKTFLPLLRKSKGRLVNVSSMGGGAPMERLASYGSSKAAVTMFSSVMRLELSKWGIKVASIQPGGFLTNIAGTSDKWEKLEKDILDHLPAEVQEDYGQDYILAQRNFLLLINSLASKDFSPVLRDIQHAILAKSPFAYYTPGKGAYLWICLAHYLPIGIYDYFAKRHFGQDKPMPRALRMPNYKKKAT

17β-HSD1 = biological target: T2, 17β-HSD1 (Homo sapiens, UniProt P14061); assay: 17β-HSD Type I activity in T-47D cells (E1→E2); assay type: cell-based; conditions: for inhibition at 10 µM: T47D
T2 construct: was measured in intact cell monolayers of T47D and MDA-MB-231 breast cancer cells respectively; endogenous in cells; host or cells: T-47D human breast cancer cells
T2 sequence (P14061 1-328): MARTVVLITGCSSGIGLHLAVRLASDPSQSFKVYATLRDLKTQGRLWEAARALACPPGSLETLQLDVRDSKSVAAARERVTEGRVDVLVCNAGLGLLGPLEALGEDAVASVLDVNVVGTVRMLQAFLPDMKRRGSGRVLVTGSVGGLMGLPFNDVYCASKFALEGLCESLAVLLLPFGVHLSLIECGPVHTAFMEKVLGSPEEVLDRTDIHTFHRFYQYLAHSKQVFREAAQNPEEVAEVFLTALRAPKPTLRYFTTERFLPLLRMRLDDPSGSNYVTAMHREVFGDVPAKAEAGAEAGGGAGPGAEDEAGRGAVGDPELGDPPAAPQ

[1] = MDA-MB-231, read-out: % inhibition of 17β-HSD2 @ 10 μM
[2] = read-out: % inhibition of 17β-HSD1 @ 10 μM, 10 μM, T-47D cells, E1→E2
[3] = 10 μM, MDA-MB-231 cells, E2→E1, read-out: % inhibition of 17β-HSD2 @ 10 μM
[4] = 10 μM, T-47D cells, E1→E2, read-out: % inhibition of 17β-HSD1 @ 10 μM
[5] = T-47D cells, E1→E2, read-out: IC50 (17β-HSD1)

Row | Compound | inhibition at 10 µM (17β-HSD2; [1]) [%] | inhibition at 10 µM (17β-HSD1; [2]) [%] | inhibition at 10 µM (17β-HSD2; [3]) [%] | inhibition at 10 µM (17β-HSD1; [4]) [%] | IC50 (17β-HSD1; [5]) [nM] | other results
1 | CC(C)NC(=O)C1CC2C3CCc4cc(O)ccc4C3CC[C@]2(C)[C@H]1O (some centres unmarked) [compound 801] | -15 | 70 | – | – | – | –
2 | Cn1cccc1CNC(=O)C1CC2C3CCc4cc(O)ccc4C3CC[C@]2(C)[C@H]1O (some centres unmarked) [compound 802] | – | – | -7 | 86 | – | –
3 | Cc1cnc(CNC(=O)C2CC3C4CCc5cc(O)ccc5C4CC[C@]3(C)[C@H]2O)cn1 (some centres unmarked) [compound 803] | – | – | -18 | 85 | – | –
4 | C[C@]12CCC3c4ccc(O)cc4CCC3C1Cc1c2n[nH]c1CO (some centres unmarked) [compound 804] | – | – | -1 | 94 | 950 | –
5 | COC(=O)Cn1cc2c(n1)[C@@]1(C)CCC3c4ccc(O)cc4CCC3C1C2 (some centres unmarked) [compound 806] | – | – | 19 | 95 | 920 | –
6 | COC(=O)Cn1ncc2c1[C@@]1(C)CCC3c4ccc(O)cc4CCC3C1C2 (some centres unmarked) [compound 807] | – | – | 30 | 79 | – | –
7 | COCCn1cc2c(n1)[C@@]1(C)CCC3c4ccc(O)cc4CCC3C1C2 (some centres unmarked) [compound 808] | – | – | 48 | 95 | 530 | –
8 | COCCn1ncc2c1[C@@]1(C)CCC3c4ccc(O)cc4CCC3C1C2 (some centres unmarked) [compound 809] | – | – | 55 | 83 | – | –
9 | CC(C)Cn1cc2c(n1)[C@@]1(C)CCC3c4ccc(O)cc4CCC3C1C2 (some centres unmarked) [compound 812] | 61 | 77 | – | – | – | –
10 | CC(C)Cn1ncc2c1[C@@]1(C)CCC3c4ccc(O)cc4CCC3C1C2 (some centres unmarked) [compound 813] | 44 | 70 | – | – | – | –
11 | C[C@]12CCC3c4ccc(O)cc4CCC3C1Cc1c2n[nH]c1O (some centres unmarked) [compound 820, 6a-Methyl-4b,5,6,6a,8,10,10a,10b,11,12-decahydro-7,8-diaza-pentaleno[2,1-a]phenanthrene-2,9-diol] | – | – | 7 | 86 | – | –
12 | CC(NC(=O)C1CC2C3CCc4cc(O)ccc4C3CC[C@]2(C)[C@H]1O)c1ccccc1 (some centres unmarked) [compound 844] | – | – | 12 | 90 | – | IC50 (17β-HSD1): 810 nM
13 | C[C@]12CCC3c4ccc(O)cc4CCC3C1CC(C(=O)NCc1ccncc1)[C@@H]2O (some centres unmarked) [compound 845] | – | – | 2.5 | 87 | – | –
14 | CC(C)NC(=O)c1[nH]nc2c1CC1C3CCc4cc(O)ccc4C3CC[C@]21C (some centres unmarked) [compound 857, 2-Hydroxy-6a-methyl-4b,5,6,6a,8,10,10a,10b,11,12-decahydro-7,8-diaza-pentaleno[2,1-a]phenanthrene-9-carboxylic acid isopropyl amide] | – | – | 0.3 | 57 | – | –
15 | C[C@]12CCC3c4ccc(O)cc4CCC3C1Cc1c2n[nH]c1C(=O)NCc1cccnc1 (some centres unmarked) [compound 860, 2-Hydroxy-6a-methyl-4b,5,6,6a,8,10,10a,10b,11,12-decahydro-7,8-diaza-pentaleno[2,1-a]phenanthrene-9-carboxylic acid (pyridin-3-ylmethyl)-amide] | – | – | 28 | 92 | 780 | –
16 | C[C@]12CCC3c4ccc(O)cc4CCC3C1Cc1c2n[nH]c1C(=O)NCC1CCCO1 (some centres unmarked) [compound 892] | -4 | 87 | – | – | – | –
17 | CNC(=O)c1[nH]nc2c1CC1C3CCc4cc(O)ccc4C3CC[C@]21C (some centres unmarked) [compound 893] | 14 | 62 | – | – | – | –

Row | Compound | inhibition at 10 µM (17β-HSD2; [1]) [%] | inhibition at 10 µM (17β-HSD1; [2]) [%] | inhibition at 10 µM (17β-HSD2; [3]) [%] | inhibition at 10 µM (17β-HSD1; [4]) [%] | IC50 (17β-HSD1; [5]) [nM] | other results
18 | CCN(C)C(=O)c1[nH]nc2c1CC1C3CCc4cc(O)ccc4C3CC[C@]21C (some centres unmarked) [compound 894] | – | – | 6 | 88 | – | –
19 | Cn1cccc1CNC(=O)c1[nH]nc2c1CC1C3CCc4cc(O)ccc4C3CC[C@]21C (some centres unmarked) [compound 895] | -4 | 89 | – | – | 2300 | –
20 | Cc1cnc(CNC(=O)c2[nH]nc3c2CC2C4CCc5cc(O)ccc5C4CC[C@]32C)cn1 (some centres unmarked) [compound 896] | 61 | 80 | – | – | – | –
21 | CN1CCN(C(=O)c2[nH]nc3c2CC2C4CCc5cc(O)ccc5C4CC[C@]32C)CC1 (some centres unmarked) [compound 897] | -0.7 | 50 | – | – | – | –
22 | C[C@]12CCC3c4ccc(O)cc4CCC3C1Cc1c2n[nH]c1C(=O)NCc1ccccn1 (some centres unmarked) [compound 915] | 9 | 93 | – | – | 880 | –
23 | C[C@]12CCC3c4ccc(O)cc4CCC3C1Cc1c2n[nH]c1C(=O)NCCc1cccnc1 (some centres unmarked) [compound 916] | 3 | 98.5 | – | – | 300 | –
24 | C[C@]12CCC3c4ccc(O)cc4CCC3C1Cc1cn(CCC#N)nc12 (some centres unmarked) [compound 921] | – | – | 44 | 95 | 730 | –
25 | CC1(C#N)CC2C3CCc4cc(O)ccc4C3CC[C@]2(C)C1=O (some centres unmarked) [compound 924] | – | – | 12 | 85 | – | –
26 | Cn1c2c(c(=O)n1C)CC1C3CCc4cc(O)ccc4C3CC[C@]21C (some centres unmarked) [compound 942] | – | – | 15 | 32 | – | –
27 | C[C@]12CCC3c4ccc(O)cc4CCC3C1C/C(=C(/O)C(F)(F)F)C2=O (some centres unmarked) [compound 946] | -1.5 | 69 | – | – | – | % inhibition of 17β-HSD1 @ 10 μM (17β-HSD1; 10 μM, T-47D cells, E1→E2): 87%
28 | C[C@]12CCC3c4ccc(O)cc4CCC3C1CC1C(C(F)(F)F)=NNC12O (some centres unmarked) [compound 947] | – | – | 2 | 83 | – | –
29 | CC(C)(C)/C=C1\CC2C3CCc4cc(O)ccc4C3CC[C@]2(C)[C@H]1O (some centres unmarked) [compound 948] | – | – | 27 | 84 | – | –
30 | C[C@]12CCC3c4ccc(O)cc4CCC3C1Cc1c2n[nH]c1C(F)(F)F (some centres unmarked) [compound 949] | – | – | 36 | 75 | – | –
31 | CCc1cc2c(cc1OS(N)(=O)=O)CCC1C2CC[C@]2(C)C(=O)C(CC(=O)NCc3cccnc3)CC12 (some centres unmarked) [compound 1039] | – | – | -4 | – | 5100 | –
32 | CCc1cc2c(cc1O)CCC1C2CC[C@]2(C)C(=O)C(CC(=O)NCc3cccnc3)CC12 (some centres unmarked) [compound 1040] | – | – | -5 | – | – | IC50 (17β-HSD1): 27 nM
33 | COc1cc2c(cc1O)CCC1C2CC[C@]2(C)C(=O)C(CC(=O)NCc3cccnc3)CC12 (some centres unmarked) [compound 1191] | – | – | 1.2 | 96 | 290 | –
